Values of other authors in patent US7604823B2, “Synergistic HIV/AIDS and/or immune disease phyto-nutraceutical composition” (priority 2006, dated 2009).
“Also recorded” adds a separate entry of the source.

Tests used:
[1] = system: bacterial resistance mechanism (multidrug pump); conditions: in the presence of 5′-MHC
HIV-1 PR = HIV-1 PR (Human immunodeficiency virus type 1 group M subtype B, UniProt P04585)
[2] = system: HIV-1-infected cells (CEM/LAV-1)
[3] = molecular target: HIV-1 reverse transcriptase (Human immunodeficiency virus type 1 group M subtype B, UniProt P04585)
HIV-1 [4] = system: HIV-1
HIV-1 [5] = conditions: prolonged period
HIV [6] = conditions: after administration, no antiretroviral medications
[7] = system: cells either acutely or chronically infected with HIV-1; conditions: cells acutely or chronically infected with HIV-1
[8] = system: HIV-1 LTR-directed gene expression; conditions: concentrations that have minor effects on cells
HIV [9] = conditions: human, in vivo
HIV [10] = system: HIV

Compound: COc1cc([C@H]2Oc3cc(-c4cc(=O)c5c(O)cc(O)cc5o4)cc(OC)c3O[C@@H]2CO)ccc1O (racemic) [5′-MHC, 5′-methoxyhydnocarpin]
- accumulation of berberine in the cells [1]: strong increase

Compound: CO[C@@H]1C=C2[C@@H]3CC[C@H]([C@H](C)C=C[C@H](C)C(C)C)[C@@]3(C)CC[C@@H]2[C@@]2(C)CC[C@H](O)C[C@]12O [3 beta-5 alpha-dihydroxy-6beta-methoxyergosta-7,22-diene]
- inhibition of HIV-1 protease (HIV-1 PR): moderately active

Compound: C=CCSSCC=C [Allyl disulfide]
- cell proliferation of HIV-1-infected cells [2]: strongly depressed

Compound: COc1ccc2cc3[n+](cc2c1OC)CCc1cc2c(cc1-3)OCO2 [Berberine]
- inhibition of HIV-1 reverse transcriptase [3]: inhibits

Compound: C/C(=C\CC[C@@H](C)[C@H]1CC(=O)[C@@]2(C)C3=C(C(=O)C[C@]12C)[C@@]1(C)CC[C@H](O)C(C)(C)[C@@H]1C[C@@H]3O)C(=O)O [Ganoderic acid beta]
- inhibition of HIV-1 protease (HIV-1 PR): significant

Compound: C[C@H](CCC=C(CO)CO)[C@H]1CC[C@@]2(C)C3=CC[C@H]4C(C)(C)C(=O)CC[C@]4(C)C3=CC[C@]12C [Ganoderiol F]
- activity as anti-HIV-1 agents (HIV-1 [4]): active

Compound: Cc1cn([C@H]2C[C@H](N=[N+]=[N-])[C@@H](CO)O2)c(=O)[nH]c1=O [ZDV, zidovudine]
- CD4+ T cell counts (HIV-1 [5]): decreased

Compound: C=CCO [allyl alcohol]
- cell proliferation of HIV-1-infected cells [2]: strongly depressed; also recorded: completely inhibited

Compound: C=C1CC[C@@H]2[C@](C)(CO)[C@H](O)CC[C@@]2(C)[C@@H]1C/C=C1/C(=O)OC[C@H]1O [andrographolide]
- mean CD4(+) lymphocyte level of HIV subjects (HIV [6]): significant rise

Compound: CC1(C)CCC2=C(O1)c1ccccc1C(=O)C2=O [beta-lapachone]
- p24 antigen production [7]: inhibited
- inhibition of HIV-1 LTR-directed gene expression [8]: potent and selective inhibitor

Compound: O=c1[nH]cnc2c1ncn2[C@H]1CC[C@@H](CO)O1 [ddI, didanosine]
- mean change of CD4 cells/mm3 (HIV [9]): decrease

Compound: CC(CC(=O)C[C@@H](C)[C@H]1CC(=O)[C@@]2(C)C3=C(C(=O)C[C@]12C)[C@@]1(C)CC[C@H](O)C(C)(C)[C@@H]1C[C@@H]3O)C(=O)O (stereo partly drawn) [ganoderic acid B]
- inhibition of HIV-1 protease (HIV-1 PR): moderately active

Compound: C[C@H](CC(=O)C[C@@H](C)[C@H]1CC(=O)[C@@]2(C)C3=C(C(=O)C[C@]12C)[C@@]1(C)CCC(=O)C(C)(C)[C@@H]1C[C@@H]3O)C(=O)O [ganoderic acid C1]
- inhibition of HIV-1 protease (HIV-1 PR): moderately active

Compound: CC(=O)O[C@@H]1C(=O)C2=C(C(=O)C[C@H]3C(C)(C)[C@@H](O)CC[C@]23C)[C@]2(C)C(=O)C[C@H]([C@H](C)CC(=O)CC(C)C(=O)O)[C@@]12C (stereo partly drawn) [ganoderic acid H]
- inhibition of HIV-1 protease (HIV-1 PR): moderately active

Compound: CC(=O)OC1C(=O)C2=C(C(=O)CC3C(C)(C)[C@@H](O)CC[C@]23C)[C@]2(C)[C@H](O)C[C@H]([C@H](C)CC(=O)CC(C)C(=O)O)[C@@]12C (stereo partly drawn) [ganoderic acid alpha]
- inhibition of HIV-1 protease (HIV-1 PR): moderately active

Compound: C[C@H](CC[C@H](O)C(C)(O)CO)[C@H]1CC[C@@]2(C)C3=CC[C@H]4C(C)(C)[C@@H](O)CC[C@]4(C)C3=CC[C@]12C (stereo partly drawn) [ganoderiol A]
- inhibition of HIV-1 protease (HIV-1 PR): moderately active

Compound: C[C@H](CCC=C(CO)CO)[C@H]1C[C@H](O)[C@@]2(C)C3=CC[C@H]4C(C)(C)C(=O)CC[C@]4(C)C3=CC[C@]12C [ganoderiol B]
- inhibition of HIV-1 protease (HIV-1 PR): moderately active

Compound: C[C@H](CC[C@H](O)C(C)(C)O)[C@H]1CC[C@@]2(C)C3=CC[C@H]4C(C)(C)C(=O)CC[C@]4(C)C3=CC[C@]12C [ganodermanondiol]
- inhibition of HIV-1 protease (HIV-1 PR): significant

Compound: C[C@H](CC[C@H](O)[C@](C)(O)CO)[C@H]1CC[C@@]2(C)C3=CC[C@H]4C(C)(C)C(=O)CC[C@]4(C)C3=CC[C@]12C [ganodermanontriol]
- inhibition of HIV-1 protease (HIV-1 PR): significant
- activity as anti-HIV-1 agents (HIV-1 [4]): active

Compound: CC(CC(=O)C[C@@H](C)[C@H]1C[C@H](O)[C@@]2(C)C3=C(C(=O)C[C@]12C)[C@@]1(C)CCC(=O)C(C)(C)[C@@H]1CC3)C(=O)O (stereo partly drawn) [ganolucidic acid A]
- inhibition of HIV-1 protease (HIV-1 PR): significant

Compound: lentinan
- tolerability (HIV [10]; HIV-positive patients): good tolerability
- CD4 cells (HIV [10]; human, in vivo): trend toward increases
